# Results reported in patent publication US12162867B2, “Inhibitors of RNA helicase DHX9 and uses thereof” (ACCENT THERAPEUTICS, INC., priority 2022, dated 2024).
# Like-named read-outs stand apart in the source and are kept apart here.
# Legend:
# [1] = system: LS411N cells; assay: DHX9 cellular proliferation assay (CellTiter-Glo), LS411N (CRC-MSI); type: cell-based; settings: LS411N, performed at Pharmaron, read-out: LS411N (CRC-MSI-H) Antiproliferative IC50
# [2] = system: circBRIP1 in HCT116 cells; assay: DHX9 circBRIP1 cellular target engagement TaqMan Multiplex assay (qPCR); type: cell-based; settings: * Taqman assay was used, read-out: DHX9 Cellular Target Engagement EC50
# [3] = target: T1, Human recombinant DHX9 protein (Homo sapiens, UniProt Q08211); assay: DHX9 ATPase assay (ADP-Glo); type: biochemical; settings: for IC50: read-out: DHX9 Biochemical Inflection Point
# T1 construct: purchased Viva
# [4] = system: NCI-H747 cells; assay: DHX9 cellular proliferation assay (CellTiter-Glo), NCI-H747 (CRC-MSS); type: cell-based; settings: performed at Pharmaron, read-out: H747 (CRC-MSS) Antiproliferative IC50
# [5] = system: circBRIP1 in HCT116 cells; assay: DHX9 circBRIP1 cellular target engagement SYBR Green assay (qPCR); type: cell-based; settings: Homo sapiens, HCT-116, circBRIP1, HCT116 cells; SyBr assay (marked ^+); read-out: DHX9 Cellular Target Engagement EC50
# [6] = Homo sapiens, HCT-116, circBRIP1, HCT116 cells
# [7] = Homo sapiens, NCI-H747, NCI-H747
# [8] = inflection point of dose-response curve
# T1 sequence (Q08211 whole entry): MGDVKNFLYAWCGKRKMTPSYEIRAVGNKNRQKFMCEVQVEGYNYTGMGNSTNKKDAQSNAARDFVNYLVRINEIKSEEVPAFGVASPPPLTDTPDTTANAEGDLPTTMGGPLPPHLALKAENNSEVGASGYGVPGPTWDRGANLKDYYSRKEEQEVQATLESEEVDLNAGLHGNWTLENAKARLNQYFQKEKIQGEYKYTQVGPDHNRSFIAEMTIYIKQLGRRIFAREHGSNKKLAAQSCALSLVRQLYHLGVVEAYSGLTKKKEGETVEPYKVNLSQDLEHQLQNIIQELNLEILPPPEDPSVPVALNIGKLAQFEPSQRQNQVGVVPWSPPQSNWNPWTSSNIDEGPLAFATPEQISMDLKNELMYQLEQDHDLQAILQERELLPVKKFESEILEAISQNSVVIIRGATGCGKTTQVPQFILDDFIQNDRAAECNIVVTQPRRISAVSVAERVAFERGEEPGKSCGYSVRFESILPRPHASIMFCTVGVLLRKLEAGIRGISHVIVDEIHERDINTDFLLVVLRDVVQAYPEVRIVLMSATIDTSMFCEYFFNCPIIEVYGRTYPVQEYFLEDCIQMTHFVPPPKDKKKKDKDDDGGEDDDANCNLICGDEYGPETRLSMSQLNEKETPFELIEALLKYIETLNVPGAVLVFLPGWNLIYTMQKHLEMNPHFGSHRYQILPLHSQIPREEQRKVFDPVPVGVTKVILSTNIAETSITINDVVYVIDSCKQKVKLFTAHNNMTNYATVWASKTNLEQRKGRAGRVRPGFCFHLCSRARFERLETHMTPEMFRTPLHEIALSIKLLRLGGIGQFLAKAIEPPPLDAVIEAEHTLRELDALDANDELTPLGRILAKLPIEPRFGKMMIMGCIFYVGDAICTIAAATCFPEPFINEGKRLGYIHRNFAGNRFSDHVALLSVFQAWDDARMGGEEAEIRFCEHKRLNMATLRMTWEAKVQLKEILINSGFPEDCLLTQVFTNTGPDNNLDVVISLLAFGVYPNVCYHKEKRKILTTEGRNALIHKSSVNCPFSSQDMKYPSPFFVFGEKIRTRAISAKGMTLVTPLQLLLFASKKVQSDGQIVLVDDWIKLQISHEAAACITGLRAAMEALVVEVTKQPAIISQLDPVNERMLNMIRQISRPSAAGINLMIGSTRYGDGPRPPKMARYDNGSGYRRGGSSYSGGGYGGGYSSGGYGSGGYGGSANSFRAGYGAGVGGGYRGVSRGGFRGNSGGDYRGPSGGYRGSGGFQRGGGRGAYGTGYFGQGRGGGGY
SMILES,"EC50 [2, 6] [nM]",DHX9 Biochemical Max Inhibition (%) [3] [%],"IC50 [4, 7] [nM]","IC50 [3, 8] [nM]",EC50 [5] [nM],"IC50 ([1]; Homo sapiens, LS-411N) [nM]",further results
"CN1CC(Oc2ccc(-c3cc(C(=O)Nc4cc(Cl)cc(NS(C)(=O)=O)c4)cn3C)nc2)C1 [Example 612, N-(3-chloro-5-methanesulfonamidophenyl)-1-methyl-5-{5-[(1-methylazetidin-3-yl)oxy]pyridin-2-yl}pyrrole-3-carboxamide]",21.2,70,> 10000,–,–,281,IC50 [3]: 10.1 nM
CC(C)(C)OC(=O)NC1CC2(C1)CC(n1cc(C(=O)Nc3cc(Cl)cc(NS(C)(=O)=O)c3)cn1)C2 (centres unmarked) [Example 318],–,–,–,207,4900,–,–
"CS(=O)(=O)Nc1cc(Cl)cc(NC(=O)c2cnn([C@H]3CCC[C@H]3c3ccccc3)c2)c1 (single isomer, unassigned) [Example 260]",–,–,–,715,> 10000,–,–
Cc1sc(C(=O)Nc2cc(Cl)cc(NS(C)(=O)=O)c2)cc1-c1ncccc1-c1cncc(F)c1 [Example 229],–,–,–,9.6,78.1,–,"IC50 ([1]; Homo sapiens, LS-411N, CRC-MSI-H): 51 nM; DHX9 Biochemical Max Inhibition [3]: 72.5%; IC50 ([4]; Homo sapiens, NCI-H747, NCI-H747, CRC-MSS): > 10000 nM"
Cc1sc(C(=O)Nc2cc(Cl)cc(NS(C)(=O)=O)c2)cc1-c1ncc(N2CCC3(C2)CC3(F)F)cn1 (centres unmarked) [Example 491],20.7,72,2160,–,–,59.1,–
"CS(=O)(=O)Nc1cc(Cl)cc(NC(=O)c2cnn([C@@H]3CCCC[C@H]3O)c2)c1 (single isomer, unassigned) [Example 150, N-(3-chloro-5-(methylsulfonamido)phenyl)-1-(trans-2-hydroxycyclohexyl)-1H-pyrazole-4-carboxamide]",–,–,–,147,6560,–,–
"CS(=O)(=O)Nc1cc(Cl)cc(NC(=O)c2cnn([C@H]3CCC[C@H]3Oc3ccccc3)c2)c1 (single isomer, unassigned) [Example 259]",–,–,–,1940,> 10000,–,–
Cn1cc(C(=O)Nc2cc(Cl)cc(NS(C)(=O)=O)c2)cc1-c1ncc(N2CCC3(CC2)COC3)cc1F [Example 475],31.5,–,8770,–,–,81.2,–

# Further lines, with some results ahead:
"EC50 [2, 6] [nM]",DHX9 Biochemical Max Inhibition (%) [3] [%],"IC50 [4, 7] [nM]","IC50 [3, 8] [nM]",EC50 [5] [nM],SMILES,"IC50 ([1]; Homo sapiens, LS-411N) [nM]",further results
112,71.5,> 10000,–,–,"Cc1sc(C(=O)Nc2cc(Cl)cc(NS(C)(=O)=O)c2)cc1-c1ncccc1OC(C)c1cc(F)cc(F)c1 (single isomer, unassigned) [Example 632]",96.8,–
–,54.1,–,–,–,CCS(=O)(=O)Nc1cc(Cl)cc(NC(=O)c2cc(-c3ncc(N4CC(F)(F)C4)cc3F)n(C)c2)c1 [Example 517],–,"IC50 [1]: 135 nM; EC50 ([2]; circBRIP1, HCT116 cells): 16.8 nM; IC50 ([4]; NCI-H747): 2220 nM"
–,62.5,–,–,–,Cn1cc(C(=O)Nc2cc(Cl)cc(NS(C)(=O)=O)c2)cc1-c1ncc(F)cc1CCc1cncc(F)c1 [Example 728],–,"EC50 ([2]; circBRIP1, HCT116 cells): 1350 nM"
106,–,> 10000,–,–,COC(=O)N1CCN(c2cnc(-c3cc(C(=O)Nc4cc(Cl)cc(NS(C)(=O)=O)c4)sc3C)c(C)c2)CC1 [Example 601],64.5,–
